Source: patent US20230165865A1, “HETEROARYLDIHYDROPYRIMIDINE DERIVATIVES AND METHODS OF TREATING HEPATITIS B INFECTIONS” (Janssen Pharmaceutica NV, priority 2018, published 2023)
Like-named read-outs stand apart in the source and are kept apart here.

What was measured:
[1] = Cytotoxicity determination in HepG2.2.15 cells (CCK-8 assay); format: cell-based; conditions: human, 6 days treatment, CCK-8, highest concentration 100 uM
Procedure: (§1) HepG2.2.15 (the HepG2.2.15 cell line can be produced by transfection of the HepG2 cell line as described in Sells, Chen, and Acs 1987 (Proc. Natl. Acad. Sci. USA 84: 1005-1009), and the HepG2 cell line is available from ATCC® under number HB-8065™)
(§2) HepG2.2.15 cells were plated into 96-well plate in 2% FBS culture medium at the density of 40,000 cells/well and 5,000cells/well for HBV inhibitory activity and cytotoxicity determination, respectively. After incubation at 37° C., 5% CO2 overnight, cells were treated with medium containing compounds for 6 days with medium and compounds refreshed after 3 days of treatment. Each compound was tested in a 1:3 serial dilutions at 8 different concentrations in triplicate. The highest concentration of the compounds was 10 uM or 1 uM for anti-HBV activity assay and 100 uM for cytotoxicity determination.
Cell viability was determined by CCK-8 assay. After 6 days of compounds treatment, 20 μl CCK-8 reagents were added to each well of cytotoxicity assay plates. Cell plates were incubated at 37° C., 5% CO2 for 2.5 h. The absorbance at 450 nm wavelength and the absorbance at 630 nm wavelength as reference was measured.
(§3) EC50 and CC50 values are calculated by the […] PRISM software.

[2] = test system: HBV; assay: Anti-viral assay in HepG2.2.15 cells: anti-HBV activity, HBV DNA in culture medium by qPCR; format: cell-based; conditions: HepG2.2.15 cells, 6 days treatment, HBV DNA by qPCR, read-out: EC50
Procedure: as §1, §2
The change of HBV DNA level induced by the compounds was assessed by quantitative real-time polymerase chain reaction (qPCR). Briefly, the HBV DNA in the culture medium was extracted using QIAamp 96 DNA Blood Kit according to the manual and then quantified by real-time PCR assay using the primers and probe in the table 1 below.
as §3

[3] = Hepatitis B virus, HepG2.2.15, 144 h

CCOC(=O)C1=C(CN2CCN3C(=S)N(CCC(C)(C)C(=O)O)CC3C2)NC(c2nccs2)=N[C@H]1c1cccc(F)c1C (stereo partly drawn) [Compound 28, 4-(7-(((S)-5-(ethoxycarbonyl)-6-(3-fluoro-2-methylphenyl)-2-(thiazol-2-yl)-3,6-dihydropyrimidin-4-yl)methyl)-3-thioxohexahydroimidazo[1,5-a]pyrazin-2(3H)-yl)-2,2-dimethylbutanoic acid]
CC50 at 6 days [1]: 10.9 µM
EC50 [2, 3]: 0.0058 µM

CCOC(=O)C1=C(CN2CCN3C(=S)N([C@@H]4CC[C@H](C(=O)O)C4)CC3C2)NC(c2nccs2)=N[C@H]1c1cccc(F)c1C (single isomer, unassigned) [Compound 24A]
CC50 at 6 days [1]: 15.5 µM
EC50 [2]: 0.0391 µM

CCOC(=O)C1=C(CN2CCN3C(=S)N(CC(C)(C)C(=O)O)C[C@@H]3C2)NC(c2nccs2)=N[C@@H]1c1ccc(F)c(F)c1C (single isomer, unassigned) [Compound 15A, 3-(7-((6-(3,4-Difluoro-2-methylphenyl)-5-(ethoxycarbonyl)-2-(thiazol-2-yl)-3,6-dihydropyrimidin-4-yl)methyl)-3-thioxohexahydroimidazo[1,5-a]pyrazin-2(3H)-yl)-2,2-dimethylpropanoic acid]
CC50 at 6 days [1]: 25.6 µM
EC50 [2, 3]: 0.0046 µM

CCOC(=O)C1=C(CN2CCN3C(=S)N(CC4(C(=O)O)CCC4)CC3C2)NC(c2nccs2)=N[C@H]1c1cccc(F)c1C (single isomer, unassigned) [Compound 29B]
CC50 at 6 days [1]: 11.2 µM
EC50 [2, 3]: 0.0015 µM

CCOC(=O)C1=C(CN2CCN3C(=S)N(C)C[C@@H]3[C@H]2C(=O)O)NC(c2nccs2)=N[C@H]1c1cccc(F)c1C (single isomer, unassigned) [Compound 35A]
CC50 at 6 days [1]: 77 µM
EC50 [2]: 0.0479 µM

COC(=O)C1=C(CN2CCN3C(=S)N(CC(C)(C)C(=O)O)C[C@@H]3C2)NC(c2nccs2)=N[C@@H]1c1ccc(F)cc1Br (single isomer, unassigned) [Compound 16A, 3-(7-((6-(2-Bromo-4-fluorophenyl)-5-(methoxycarbonyl)-2-(thiazol-2-yl)-3,6-dihydropyrimidin-4-yl)methyl)-3-thioxohexahydroimidazo[1,5-a]pyrazin-2(3H)-yl)-2,2-dimethylpropanoic acid]
CC50 at 6 days [1]: 15.3 µM
EC50 [2, 3]: 0.0045 µM

COC(=O)C1=C(CN2CCN3C(=S)N(CC(C)(C)C(=O)O)CC3C2)NC(c2nccs2)=NC1c1ccc(F)c(F)c1C (single isomer, unassigned) [Compound 12B, 3-(7-((6-(3,4-Difluoro-2-methylphenyl)-5-(methoxycarbonyl)-2-(thiazol-2-yl)-3,6-dihydropyrimidin-4-yl)methyl)-3-thioxohexahydroimidazo[1,5-a]pyrazin-2(3H)-yl)-2,2-dimethylpropanoic acid]
CC50 at 6 days [1]: 14.5 µM
EC50 [2, 3]: 0.002 µM

CCOC(=O)C1=C(CN2CCN3C(=S)N(CC4(C(=O)O)CC4)CC3C2)NC(c2nccs2)=NC1c1cccc(F)c1Cl (stereo not shown) [Compound 5, 1-((7-((6-(2-Chloro-3-fluorophenyl)-5-(ethoxycarbonyl)-2-(thiazol-2-yl)-3,6-dihydropyrimidin-4-yl)methyl)-3-thioxohexahydroimidazo[1,5-a]pyrazin-2(3H)-yl)methyl)cyclopropanecarboxylic acid]
CC50 at 6 days [1]: 11.8 µM
EC50 [2, 3]: 0.0017 µM

COC(=O)C1=C(CN2CCN3C(=S)N(CC(C)(C)C(=O)O)CC3C2)NC(c2nccs2)=NC1c1ccc(F)c(F)c1Cl (single isomer, unassigned) [Compound 11A, 3-(7-((6-(2-Chloro-3,4-difluorophenyl)-5-(methoxycarbonyl)-2-(thiazol-2-yl)-3,6-dihydropyrimidin-4-yl)methyl)-3-thioxohexahydroimidazo[1,5-a]pyrazin-2(3H)-yl)-2,2-dimethylpropanoic acid]
CC50 at 6 days [1]: 16.2 µM
EC50 [2, 3]: 0.0019 µM

COC(=O)C1=C(CN2CCN3C(=S)N(CC(C)(C)C(=O)O)CC3C2)NC(c2ncoc2C)=NC1c1cccc(F)c1C (single isomer, unassigned) [Compound 31A, 3-(7-((6-(3-Fluoro-2-methylphenyl)-5-(methoxycarbonyl)-2-(5-methyloxazol-4-yl)-3,6-dihydropyrimidin-4-yl)methyl)-3-thioxohexahydroimidazo[1,5-a]pyrazin-2(3H)-yl)-2,2-dimethylpropanoic acid]
CC50 at 6 days [1]: 43.7 µM
EC50 [2, 3]: 0.015 µM

CCOC(=O)C1=C(CN2CCN3C(=S)N(CC(C)(C)C(=O)O)CC3C2)NC(c2nccs2)=NC1c1ccc(F)c(F)c1Cl (single isomer, unassigned) [Compound 14A, 3-(7-((6-(2-Chloro-3,4-difluorophenyl)-5-(ethoxycarbonyl)-2-(thiazol-2-yl)-3,6-dihydropyrimidin-4-yl)methyl)-3-thioxohexahydroimidazo[1,5-a]pyrazin-2(3H)-yl)-2,2-dimethylpropanoic acid]
CC50 at 6 days [1]: 9.6 µM
EC50 [2, 3]: 0.0012 µM

COC(=O)C1=C(CN2CCN3C(=S)N(CC(C)(C)C(=O)O)CC3C2)NC(c2nccs2)=NC1c1cccc(F)c1C (single isomer, unassigned) [Compound 10B, 3-(-7-((6-(3-Fluoro-2-methylphenyl)-5-(methoxycarbonyl)-2-(thiazol-2-yl)-3,6-dihydropyrimidin-4-yl)methyl)-3-thioxohexahydroimidazo[1,5-a]pyrazin-2(3H)-yl)-2,2-dimethylpropanoic acid]
CC50 at 6 days [1]: 23.2 µM
EC50 [2, 3]: 0.0029 µM

CCOC(=O)C1=C(CN2CCN3C(=S)N([C@H]4CC[C@@H](C(=O)O)C4)CC3C2)NC(c2nccs2)=N[C@H]1c1cccc(F)c1C (single isomer, unassigned) [Compound 24C]
CC50 at 6 days [1]: 11.6 µM
EC50 [2]: 0.0014 µM

CCOC(=O)C1=C(CN2CCN3C(=S)N(CC4(C(=O)O)CC4)C[C@@H]3C2)NC(c2nccs2)=N[C@H]1c1cccc(F)c1Cl (single isomer, unassigned) [Compound 18B, 1-((7-((6-(2-chloro-3-fluorophenyl)-5-(ethoxycarbonyl)-2-(thiazol-2-yl)-3,6-dihydropyrimidin-4-yl)methyl)-3-thioxohexahydroimidazo[1,5-a]pyrazin-2(3H)-yl)methyl)cyclopropane-1-carboxylic acid]
CC50 at 6 days [1]: 13 µM
EC50 [2, 3]: 0.0015 µM

CCOC(=O)C1=C(CN2CCN3C(=S)N(CC(C)(C)C(=O)O)CC3C2)NC(c2nccs2)=NC1c1ccc(F)cc1Br (single isomer, unassigned) [Compound 13A, 3-(7-((6-(2-Bromo-4-fluorophenyl)-5-(ethoxycarbonyl)-2-(thiazol-2-yl)-3,6-dihydropyrimidin-4-yl)methyl)-3-thioxohexahydroimidazo[1,5-a]pyrazin-2(3H)-yl)-2,2-dimethylpropanoic acid]
CC50 at 6 days [1]: 14.7 µM
EC50 [2, 3]: 0.001 µM

CCOC(=O)C1=C(CN2CCN3C(=S)N(CC(C)(C)C(=O)O)C[C@@H]3C2)NC(c2nccs2)=N[C@H]1c1ccc(F)cc1Cl (single isomer, unassigned) [Compound 21A, 3-(7-((6-(2-chloro-4-fluorophenyl)-5-(ethoxycarbonyl)-2-(thiazol-2-yl)-3,6-dihydropyrimidin-4-yl)methyl)-3-thioxohexahydroimidazo[1,5-a]pyrazin-2(3H)-yl)-2,2-dimethylpropanoic acid]
CC50 at 6 days [1]: 15.2 µM
EC50 [2, 3]: 0.006 µM

CCOC(=O)C1=C(CN2CCN3C(=S)N(CC(C)C(=O)O)C[C@@H]3C2)NC(c2nccs2)=N[C@H]1c1cccc(F)c1C (single isomer, unassigned) [Compound 27A]
CC50 at 6 days [1]: 23.6 µM
EC50 [2, 3]: 0.0048 µM
